Where two headings read alike, the source gives them in different places.
Assays:
Experiment in all cases: IncuCyte Kinetic Caspase-3/7 Apoptosis Assay
Format in all cases: cell-based
HL-60 = settings: Homo sapiens, read-out: Compound 1-induced Apoptosis EC50
Text: (§1) Methods. Acute Myeloid Leukemia Cell Line Panel: Human AML cell lines, AML-193, F36-P, GDM-1, HL-60, HNT-34, Kasumi-1, Kasumi-3, KG-1, KG-1a, ML-2, MOLM-13, MUTZ-8, MV-4-11, NOMO-1, OCI-AML2, OCI-AML3, SIG-M5, TF-1, THP-1, and UT-7 were obtained from American Type Culture Collection (ATCC; Manassas, Va.) and Deutsche Sammlung von Mikroorganismen und Zellkulturen (DSMZ) (Germany) cell banks. The AML panel includes cell line(s) from each FAB classification (M0-M7) (Table 7).
(§2) Cell Culture Conditions: Cell lines were maintained in growth media containing 20% fetal bovine serum (FBS) (Hyclone Cat no. SH30910.03, Lot no. AZF188864; Corning REFno. 35-010-CV, Lot no. 35010124) supplemented with or without 10 ng/mL human recombinant granulocyte-macrophage colony stimulating factor (Sigma-Aldrich Cat no. SRP3050) (Table 8). Medium was purchased from ATCC (Cat no. 30-2001, 30-2002, 30-2003, 30-2005) and Gibco (REF no. 12561-056). Human recombinant granulocyte macrophage colony stimulating factor (GM-CSF) was expressed in Escherichia coli. The cell doubling times for each cell line were provided by ATCC and DSMZ. Cells were maintained in humidified incubators at 5% carbon dioxide (CO2). All cell lines were acclimated to Eagle's minimal essential medium (EMEM)+20% FBS with or without GM-CSF over 2 to 4 weeks prior to live cell imaging using IncuCyte Zoom (Essen Biosciences). The use of EMEM was necessary to eliminate background fluorescence caused by riboflavin in most media.
(§3) Incubation of Cell Cultures with Compound 1: Compound 1 was provided for studies by Celgene chemistry group at a stock concentration of 30 mM in 20 μL dimethyl sulfoxide (DMSO) frozen. Costar 96-well cell culture plates (Corning Cat no. 3595) were coated with 100 μL of 10 µg/mL fibronectin (Sigma-Aldrich Cat no. F1141) for 4 hours at 37° C. and immediately used or refrigerated overnight for later use. Cells (3000 to 6000 cells) were plated in growth medi in fibronectin-coated 96-well plates and incubated for a minimum of a few hours to overnight. Cells were incubated with a 12-point concentration response in triplicate with Compound 1 ([…]) including DMSO and Media controls. A 3-fold serial dilution of Compound 1 starting from a concentration of 200 μM in 0.6% DMSO (diluted in Media) was performed. For most sensitive cell lines, a 3-fold serial dilution of Compound 1 starting from a concentration of 20 μM in 0.6% DMSO (diluted in media) was performed. A volume of 5 μL or 10 μL for each dilution was added to 100 μL or 200 μL cells, respectively (0.3% DMSO final) and incubated for live cell imaging.
(§4) Live Cell Imaging on IncuCyte Zoom: Following incubation of cells with Compound 1, diluted Caspase 3/7 reagent (Essen Biosciences Cat no. 4440) is added to each well. The Caspase-3/7 reagent couples the activated caspase-3/7 recognition motif (DEVD) to NucView™488, a DNA intercalating dye. The cleavage of substrate by activated caspase-3/7 results in the release of the DNA dye and green fluorescent staining of nuclear DNA. This allows imaging of cells undergoing caspase-3/7 mediated apoptosis over time. Caspase-3/7 activation was quantified using the IncuCyte™ ZOOM basic analyzer. Red-labeled cell lines were also imaged over time using the IncuCyte™ ZOOM basic analyzer, for determination of both cell doubling time and Compound 1 effect on cell viability. Experiments were performed at least two times in each cell line.
(§5) Next, a 4 parameter log-logistic model was used to determine relative EC50 at each time point by the ‘drm’ function from the R ‘drc’ package (Ritz C, Streibig J C. Bioassay Analysis using R. J. Statist. Software 2005; 12(5):1-22). Goodness of fit was measured by R squared (coefficient of determination or the amount of variation explained by the model fit) of ≥80%, and EC50 parameter was assessed by having a ratio of standard error to the parameter of ≤40%, and the presence of at least one concentration point above and below the reported EC50. […]

HNT-34 = settings: Homo sapiens, read-out: Compound 1-induced Apoptosis EC50
Text: as §1, §2, §3, §4, §5

KG-1a = settings: Homo sapiens, read-out: Compound 1-induced Apoptosis EC50
Text: as §1, §2, §3, §4, §5

KG-1 = settings: Homo sapiens, read-out: Compound 1-induced Apoptosis EC50
Text: as §1, §2, §3, §4, §5

Kasumi-3 = settings: Homo sapiens, read-out: Compound 1-induced Apoptosis EC50
Text: as §1, §2, §3, §4, §5

MUTZ-8 = settings: Homo sapiens, read-out: Compound 1-induced Apoptosis EC50
Text: as §1, §2, §3, §4, §5

Nomo-1 = settings: Homo sapiens, read-out: Compound 1-induced Apoptosis EC50
Text: as §1, §2, §3, §4, §5

OCI-AML2 = settings: Homo sapiens, read-out: Compound 1-induced Apoptosis EC50
Text: as §1, §2, §3, §4, §5

OCI-AML3 = settings: Homo sapiens, read-out: Compound 1-induced Apoptosis EC50
Text: as §1, §2, §3, §4, §5

SIG-M5 = settings: Homo sapiens, read-out: Compound 1-induced Apoptosis EC50
Text: as §1, §2, §3, §4, §5

THP-1 = settings: Homo sapiens
Text: as §1, §2, §3, §4, §5

UT-7 = settings: Homo sapiens, read-out: Compound 1-induced Apoptosis EC50
Text: as §1, §2, §3, §4, §5

O=C1CCC(N2Cc3cc(CNC(=O)C(F)(F)c4ccc(Cl)cc4)ccc3C2=O)C(=O)N1 (centres unmarked) [Compound 1, 2-(4-chlorophenyl)-N-((2-(2,6-dioxopiperidin-3-yl)-1-oxoisoindolin-5-yl)methyl)-2,2-difluoroacetamide]
EC50 (HL-60; 24 hr): 73 nM
EC50 (HL-60; 48 hr): 15 nM
EC50 (HL-60; 72 hr): 8 nM
EC50 (HNT-34; 24 hr): 7 nM
EC50 (HNT-34; 48 hr): 4 nM
EC50 (HNT-34; 96 hr): 2 nM
EC50 (KG-1a; 24 hr): 226 nM
EC50 (KG-1a; 48 hr): 145 nM
EC50 (KG-1a; 72 hr): 186 nM
EC50 (KG-1; 12 hr): 53 nM
EC50 (KG-1; 24 hr): 108 nM
EC50 (KG-1; 48 hr): 39 nM
EC50 (KG-1; 72 hr): 26 nM
EC50 (KG-1; 96 hr): 25 nM
EC50 (Kasumi-3; 12 hr): 54 nM
EC50 (Kasumi-3; 24 hr): 10 nM
EC50 (Kasumi-3; 48 hr): 4 nM
EC50 (Kasumi-3; 72 hr): 3 nM
EC50 (Kasumi-3; 96 hr): 1 nM
EC50 (MUTZ-8; 24 hr): 88 nM
EC50 (MUTZ-8; 48 hr): 40 nM
EC50 (MUTZ-8; 72 hr): 18 nM
EC50 (MUTZ-8; 96 hr): 15 nM
EC50 (Nomo-1; 24 hr): 63 nM
EC50 (Nomo-1; 48 hr): 133 nM
EC50 (Nomo-1; 72 hr): 84 nM
EC50 (Nomo-1; 96 hr): 66 nM
EC50 (OCI-AML2; 24 hr): 436 nM
EC50 (OCI-AML2; 48 hr): 81 nM
EC50 (OCI-AML2; 72 hr): 41 nM
EC50 (OCI-AML2; 96 hr): 38 nM
EC50 (OCI-AML3; OCI-AML-3, 48 hr): 896 nM
EC50 (OCI-AML3; OCI-AML-3, 72 hr): 971 nM
EC50 (OCI-AML3; OCI-AML-3, 96 hr): 418 nM
EC50 (SIG-M5; 24 hr): 148 nM
EC50 (SIG-M5; 48 hr): 97 nM
EC50 (SIG-M5; 72 hr): 50 nM
EC50 (SIG-M5; 96 hr): 33 nM
EC50 (THP-1; 48 hours, read-out: apoptosis EC50): > 10000 nM
EC50 (THP-1; 48 hours, read-out: apoptosis EC50 48hr): > 10000 nM
EC50 (THP-1; all time points, read-out: apoptosis EC50): > 10000 nM
EC50 (UT-7; UT7, 48 hr): 231 nM
EC50 (UT-7; UT7, 72 hr): 218 nM
EC50 (UT-7; UT7, 96 hr): 168 nM

Reference: patent publication US11590117B2, “Treatment of a hematologic malignancy with 2-(4-chlorophenyl)-n-((2-(2,6-dioxopiperidin-3-yl)-1-oxoisoindolin-5-yl)methyl)-2,2-difluoroacetamide” (priority 2016, dated 2023)
